{"source": "patent US20180280447A1", "about": "“PLACENTA-DERIVED CELLS EXCRETING C3 OR C1R COMPLEMENT AND COMPOSITION CONTAINING SAME” (SUNGKWANG MEDICAL FOUNDATION, priority 2014, published 2018)", "molecules": {"B1": {"name": "FGF4: growth factor (R&D Systems) tested for neural induction of hPDCs (protein, UniProt P08620 31-206, looked up)", "Fibroblast growth factor 4": "APTAPNGTLEAELERRWESLVALSLARLPVAAQPKEAAVQSGAGDYLLGIKRLRRLYCNVGIGFHLQALPDGRIGGAHADTRDSLLELSPVERGVVSIFGVASRFFVAMSSKGKLYGSPFFTDECTFKEILLPNNYNAYESYKYPGMFIALSKNGKTKKGNRVSPTMKVTHFLPRL"}, "B2": {"name": "DLL1-FLAG: recombinant DLL1 protein (protein, UniProt O00548 18-545, looked up)", "extracellular domain": "QVWSSGVFELKLQEFVNKKGLLGNRNCCRGGAGPPPCACRTFFRVCLKHYQASVSPEPPCTYGSAVTPVLGVDSFSLPDGGGADSAFSNPIRFPFGFTWPGTFSLIIEALHTDSPDDLATENPERLISRLATQRHLTVGEEWSQDLHSSGRTDLKYSYRFVCDEHYYGEGCSVFCRPRDDAFGHFTCGERGEKVCNPGWKGPYCTEPICLPGCDEQHGFCDKPGECKCRVGWQGRYCDECIRYPGCLHGTCQQPWQCNCQEGWGGLFCNQDLNYCTHHKPCKNGATCTNTGQGSYTCSCRPGYTGATCELGIDECDPSPCKNGGSCTDLENSYSCTCPPGFYGKICELSAMTCADGPCFNGGRCSDSPDGGYSCRCPVGYSGFNCEKKIDYCSSSPCSNGAKCVDLGDAYLCRCQAGFSGRHCDDNVDDCASSPCANGGTCRDGVNDFSCTCPPGYTGRNCSAPVSRCEHAPCHNGATCHERGHRYVCECARGYGGPNCQFLLPELPPGPAVVDLTEKLEGQGGPFPW", "modifications": "extracellular domain FLAG tag", "notes": "recombinant DLL1 protein"}}, "assay_type_in_all_cases": "cell-based, human", "key": {"hPDCs [1]": {"system": "hPDCs", "experiment": "Notch/DLL1 signaling in nerve/neuron induction of hPDCs", "experimental": "(§1) Quantitative RT-PCR: Total RNA was isolated from cells using TRizol (Invitrogen). cDNA was synthesized from 1 μg of total RNA using Superscript II reverse transcriptase, Oligo-d(T) 12-18 primer, DTT, and dNTPs according to the manufacturer's protocol. RT-PCR was performed by using a Pre-Mix kit (Bioneer). A PCR product was electrophoresed on a 2% agarose gel using RedGel (Biotium, Inc), and visualized by a UV-transilluminator.\nTo suppress FGF4 downstream signaling, hPDCs were cultured for 1 hour in a 10% FBS-supplemented alpha-MEM medium pretreated with or without 5 μM of ERK-inhibiting U0126 or 10 μM of JNK-inhibiting SP600125 (Calbiochem) in dimethyl sulfoxide (DMSO), and then stimulated with 25 ng/mL FGF4 for 3 days. To analyze suppression of Notch signaling, […] were in cultured for 1 hour in a 10% FBS-supplemented alpha-MEM medium pretreated with or without 50 μM of Notch-inhibiting DAPT (N—[N-(3,5-difluorophenacetyl)-1-alanyl]-S-phenylglycine t-butyl ester, Sigma), and then stimulated with 25 ng/mL FGF4 for 3 days."}, "hPDCs [2]": {"system": "hPDCs", "experiment": "Suppression of FGF4 downstream signaling (ERK, JNK) in hPDCs", "experimental": "[…] To analyze suppression of Notch signaling, ASCs were in cultured for 1 hour in a 10% FBS-supplemented alpha-MEM medium pretreated with or without 50 μM of Notch-inhibiting DAPT (N—[N-(3,5-difluorophenacetyl)-1-alanyl]-S-phenylglycine t-butyl ester, Sigma), and then stimulated with 25 ng/mL FGF4 for 3 days.\nCells were first fixed in 4% PFA at room temperature for 15 minutes, and then permeabilized with 0.1% Triton X-100 for 20 minutes, followed by blocking with 10% normal goat serum (NGS). The following primary antibodies were used: anti-neuron classIII β-tubulin (Tuji), -Nestin (Covance), -Ki-67 (Novocastra), -SOX2, -NANOG, KLF4, Brachyury/Bry (all from Abcam), OCT3/4, GATA4 (all from Santa Cruz). Cells were incubated with Alexa Fluor 488 or 594-conjugated antibody (Molecular Probes) at room temperature for 1 hour, and to examine nuclei, cells were stained with 4′, 6-diamino-2-phenylindole (DAPI, 2 mg/mL in PBS). A cover-slip was sealed to a glass slide. Cells were visualized by a fluorescence microscope or a confocal fluorescence microscope (LSM 510 confocal microscope, Zeiss)."}, "TGF-β1 mRNA": {"system": "TGF-β1 mRNA", "experiment": "TGF-β1 gene silencing by siRNA in PDCs", "text": "Using the human nucleotide sequences for TGF-β1 mRNA obtained from GenBank (GI:260655621) and referring to the design strategy of siRNA, two pairs of 21-bp reverse repeat sequences targeting TGF-β1 mRNA were synthesized by Bioneer (Seoul, Korea). siRNA targeted forward: 5′. CAGAGUACACACAGCAUAU-3′(1243-1261) (SEQ ID NO: 31); reverse, 5′-AUAUGCUGUGUGUACUCUG-3′(1261-1243) (SEQ ID NO: 32) of the TGF-β coding sequence. siRNA (at a final concentration of 100 pmol) was transfected with Upofectamine 2000 (Invitrogen, Gaithersburg, Md.) according to the manufacturer's instructions. The efficacy of TGF-β1 gene silencing was assessed by quantitative real-time PCR and Western blotting."}, "hPDCs [3]": {"system": "hPDCs", "experiment": "Neural induction of hPDCs by FGF4", "settings": "3 days", "experimental": "as §1\nImmunoblotting analysis: Cells were washed with cold PBS, and lysed with a lysis buffer containing a protease inhibitor cocktail (Pierce). A total cell lysate was normalized with a Bradford reagent (Bio-Rad), and 30˜50 μg of the cell lysate was applied to 8˜12% SDS-PAGE and transferred onto a PVDF membrane (Milipore). The membrane was blocked with TBS-T (50 mM Tris-HCl, pH 7.6, 150 mM NaCl, 0.05% Tween-20) containing 5% skim milk (Becton Dickinson), and examined with respective antibodies. An immune reaction was performed by using an ECL Western Blotting system (Millipore, Amersham). […]\nCells were first fixed in 4% PFA at room temperature for 15 minutes, and then permeabilized with 0.1% Triton X-100 for 20 minutes, followed by blocking with 10% normal goat serum (NGS). […] Cells were visualized by a fluorescence microscope or a confocal fluorescence microscope (LSM 510 confocal microscope, Zeiss)."}}, "data": [{"molecule": "C[C@H](NC(=O)Cc1cc(F)cc(F)c1)C(=O)N[C@H](C(=O)OC(C)(C)C)c1ccccc1", "note": "[DAPT, N—[N-(3,5-difluorophenacetyl)-1-alanyl]-S-phenylglycine t-butyl ester]", "values": [{"measurement": "DLL1, Nestin, and TUJ1 gene expression", "setting": "hPDCs [1]; compared with DMSO-treated cells, HD culture with FGF4", "result": "significantly low levels"}]}, {"molecule": "Oc1c2ccccc2c2c3c(cccc13)N=N2", "note": "[SP600125]", "values": [{"measurement": "% Ki-67 cells in total DAPI+ cells", "setting": "hPDCs [2]; SP600125", "result": "37.53±1.89", "unit": "%"}, {"measurement": "Nestin+ total cells", "setting": "hPDCs [2]; SP600125, FGF4, 72 hours", "result": "48.47±3.07"}]}, {"molecule": "N#CC(=C(/N)Sc1ccccc1N)/C(C#N)=C(\\N)Sc1ccccc1N", "note": "[U0126]", "values": [{"measurement": "% Ki-67+ cells in total DAPI+ cells", "setting": "hPDCs [2]; 5 mM U0216", "result": "64.46±2.14", "unit": "%"}, {"measurement": "Nestin+ total cells", "setting": "hPDCs [2]; 5 mM U0216, FGF4, 72 hours", "result": "47.61±3.46"}, {"measurement": "Nestin protein levels", "setting": "hPDCs [2]; FGF4-treated hPDCs, immunoblotting", "result": "decrease in Nestin protein levels"}]}, {"molecule": "TGF-β siRNA: siRNA targeting TGF-β1 mRNA, SEQ ID NO: 31 and 32, synthesized by Bioneer (chain 1 CAGAGUACACACAGCAUAU; chain 2 AUAUGCUGUGUGUACUCUG; listed as RNA, chemistry not given here)", "values": [{"measurement": "PEDF and Ang-1 expressions", "setting": "TGF-β1 mRNA; after TGF-β siRNA transfection", "result": "no changes"}, {"measurement": "decrease of TGF-β expression", "setting": "TGF-β1 mRNA; quantitative real-time PCR, compared with control PDCs", "result": "80-90%"}]}, {"molecule": "B1", "values": [{"measurement": "expression levels of Nestin and Musashi1", "setting": "hPDCs [3]; 25 ng/mL FGF4 vs 10 ng/mL EGF or 10 ng/mL bFGF", "result": "much higher"}, {"measurement": "mRNA expression level of Nestin", "setting": "hPDCs [3]; 25 ng/mL among 10, 25, 50 ng/mL", "result": "highest mRNA expression level of Nestin"}]}, {"molecule": "B2", "values": [{"measurement": "mRNA levels of DLL1, Nestin, and TUJ1", "setting": "hPDCs [1]; three days with FGF4 in hPDC cultures", "result": "up-regulated"}]}]}
